Columns and labels:
[1] = biological target: PD-1/PD-L1 PPI (Homo sapiens, UniProt Q9NZQ7); test: PDL1/PD1 Binding Assay; conditions: PDL1-6×His 0.3 nM, PD1-Fc-Avi-Biotin 2.5 nM, Acceptor/Donor beads, Envision reader
Procedure: Compounds to be tested were serially diluted in DMSO, and further diluted in assay buffer (25 mM Hepes pH 7.4, 150 mM NaCl, 0.005% Tween 20, BSA 0.01%). Diluted compounds were added to the wells with final concentration of DMSO at 1%. PDL1-6×His protein was added to the wells, mixed well with compound. The plates were incubated for 30 min at room temperature. PD1-Fc-Avi-Biotin protein was added to the wells. Final concentration of PDL1 and PD1 protein is 0.3 nM and 2.5 nM, respectively. After a binding time of 30 min at room temperature, Anti-6×His Acceptor beads (final concentration 20 ug/ml) were added to the wells, and the incubation continued for 1 h. Streptavidin Donor beads (final concentration 20 ug/mL) were added at reduced light. The plates were sealed with foil and incubated in the dark for additional 1 h or overnight before reading on an Envision reader. The IC50 values were determined by fitting the curves using a four-parameter equation in Graphpad Prism 8.

[2] = test system: PD-1/PD-L1 interaction; test: PD-1/PD-L1 NFAT Reporter Assay (co-culture of Jurkat T cells overexpressing PD-1 and PD-L1 expressing CHO cells); type: cell-based; conditions: co-culture 6 hrs at 37° C., NFAT-mediated luciferase activity
Procedure: Blocking the PD-1/PD-L1 interaction will release the inhibitory signal and results in TCR signaling and NFAT-mediated luciferase activity.
CHO cells expressing surface-bound anti-CD3 antibodies and PD-L1 were first seeded overnight and treated with the compounds. Jurkat cells overexpressing PD-1 and a luciferase construct under NFAT promoter were then immediately seeded on the monolayer of CHO cells. The co-culture was then incubated for 6 hrs at 37° C. Luciferase activity was assessed by adding the ONE-Glo reagent and measuring luminescence with a plate reader. EC50 values were determined from the fit of the dose-response curves.

PD-1/PD-L1 PPI, sequence (Q9NZQ7 19-238 limits assumed): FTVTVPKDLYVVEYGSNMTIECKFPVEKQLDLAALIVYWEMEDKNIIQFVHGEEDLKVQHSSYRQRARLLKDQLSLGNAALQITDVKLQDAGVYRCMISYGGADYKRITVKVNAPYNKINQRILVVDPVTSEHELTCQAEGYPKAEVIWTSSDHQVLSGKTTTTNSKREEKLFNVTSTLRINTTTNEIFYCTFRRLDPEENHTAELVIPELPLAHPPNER

Row | Structure (SMILES) | IC50 [1] [nM] | EC50 ([2]; Homo sapiens, Jurkat, 6 h) [nM] | EC50 [2] [nM]
1 | COc1nc(-c2cccc(-c3cccc(NC(=O)c4cn(C)c(=O)n(C)c4=O)c3C)c2C)cc2c1[C@H](N[C@@H]1CCOC[C@H]1O)CC2 (single isomer, unassigned) [Compound A-90] | ≤ 10 | 10 to 100 | –
2 | COc1nc(-c2cccc(-c3cccc(NC(=O)c4nn(C)c(=O)n(C)c4=O)c3C)c2C)cc2c1[C@@H](N[C@@H]1CCOC[C@H]1O)CC2 (single isomer, unassigned) [Compound A-91] | ≤ 10 | 1000 to 10000 | –
3 | COc1nc(-c2cccc(-c3cccc(NC(=O)c4nn(C)c(=O)n(C)c4=O)c3C)c2C)cc2c1[C@H](N[C@@H]1CCOC[C@H]1O)CC2 (single isomer, unassigned) [Compound A-92] | ≤ 10 | 10 to 100 | –
4 | COc1nc(-c2cccc(-c3cccc(NC(=O)c4nn(C)c(=O)n(C)c4=O)c3Cl)c2Cl)cc2c1[C@@H](N[C@@H]1CCOC[C@H]1O)CC2 (single isomer, unassigned) [Compound A-93] | ≤ 10 | 100 to 1000 | –
5 | COc1nc(-c2cccc(-c3cccc(NC(=O)c4nn(C)c(=O)n(C)c4=O)c3Cl)c2Cl)cc2c1[C@H](N[C@@H]1CCOC[C@H]1O)CC2 (single isomer, unassigned) [Compound A-94] | ≤ 10 | ≤ 10 | –
6 | COc1nc(-c2cccc(-c3cccc(NC(=O)c4nn(C)c(=O)n(C)c4=O)c3C)c2Cl)cc2c1[C@@H](N[C@@H]1CCOC[C@H]1O)CC2 (single isomer, unassigned) [Compound A-95] | ≤ 10 | 100 to 1000 | –
7 | COc1nc(-c2cccc(-c3cccc(NC(=O)c4cn(C)c(=O)n(C)c4=O)c3C)c2C)cc2c1[C@@H](N[C@@H]1COC[C@H]1O)CC2 (single isomer, unassigned) [Compound A-97] | 10 to 100 | 1000 to 10000 | –
8 | COc1nc(-c2cccc(-c3cccc(NC(=O)c4cn(C)c(=O)n(C)c4=O)c3C)c2C)cc2c1[C@H](N[C@@H]1COC[C@H]1O)CC2 (single isomer, unassigned) [Compound A-98] | ≤ 10 | 100 to 1000 | –
9 | COc1nc(-c2cccc(-c3cccc(NC(=O)c4nn(C)c(=O)n(C)c4=O)c3Cl)c2Cl)cc2c1[C@@H](N[C@@H]1COC[C@H]1O)CC2 (single isomer, unassigned) [Compound A-99] | ≤ 10 | 100 to 1000 | –
10 | COc1nc(-c2cccc(-c3cccc(NC(=O)c4nn(C)c(=O)n(C)c4=O)c3Cl)c2Cl)cc2c1[C@H](N[C@@H]1COC[C@H]1O)CC2 (single isomer, unassigned) [Compound A-100] | ≤ 10 | ≤ 10 | –
11 | COc1nc(-c2cccc(-c3cccc(NC(=O)c4nn(C)c(=O)n(C)c4=O)c3C)c2Cl)cc2c1[C@@H](N[C@@H]1COC[C@H]1O)CC2 (single isomer, unassigned) [Compound A-101] | ≤ 10 | > 5000 | –
12 | COc1nc(-c2cccc(-c3cccc(NC(=O)c4nn(C)c(=O)n(C)c4=O)c3C)c2Cl)cc2c1[C@H](N[C@@H]1COC[C@H]1O)CC2 (single isomer, unassigned) [Compound A-102] | ≤ 10 | ≤ 10 | –
13 | COc1nc(-c2cccc(-c3cccc(NC(=O)c4nn(C)c(=O)n(C)c4=O)c3C)c2C)cc2c1[C@@H](N[C@@H]1COC[C@H]1O)CC2 (single isomer, unassigned) [Compound A-103] | 10 to 100 | > 5000 | –
14 | COc1nc(-c2cccc(-c3cccc(NC(=O)c4nn(C)c(=O)n(C)c4=O)c3C)c2C)cc2c1[C@H](N[C@@H]1COC[C@H]1O)CC2 (single isomer, unassigned) [Compound A-104] | ≤ 10 | 10 to 100 | –
15 | COc1nc(-c2cccc(-c3cccc(NC(=O)c4cn(C)c(=O)n(C)c4=O)c3C)c2C)cc2c1[C@@H](N[C@@H]1COC[C@@H]1O)CC2 (single isomer, unassigned) [Compound A-105] | 10 to 100 | 10 to 100 | –
16 | COc1nc(-c2cccc(-c3cccc(NC(=O)c4cn(C)c(=O)n(C)c4=O)c3C)c2C)cc2c1[C@H](N[C@@H]1COC[C@@H]1O)CC2 (single isomer, unassigned) [Compound A-106] | ≤ 10 | 100 to 1000 | –

Row | Structure (SMILES) | IC50 [1] [nM] | EC50 ([2]; Homo sapiens, Jurkat, 6 h) [nM] | EC50 [2] [nM]
17 | COc1nc(-c2cccc(-c3cccc(NC(=O)c4nn(C)c(=O)n(C)c4=O)c3Cl)c2Cl)cc2c1[C@@H](N[C@@H]1COC[C@@H]1O)CC2 (single isomer, unassigned) [Compound A-107] | ≤ 10 | ≤ 10 | –
18 | COc1nc(-c2cccc(-c3cccc(NC(=O)c4nn(C)c(=O)n(C)c4=O)c3Cl)c2Cl)cc2c1[C@H](N[C@@H]1COC[C@@H]1O)CC2 (single isomer, unassigned) [Compound A-108] | ≤ 10 | 100 to 1000 | –
19 | COc1nc(-c2cccc(-c3cccc(NC(=O)c4nn(C)c(=O)n(C)c4=O)c3C)c2Cl)cc2c1[C@@H](N[C@@H]1COC[C@@H]1O)CC2 (single isomer, unassigned) [Compound A-109] | ≤ 10 | ≤ 10 | –
20 | COc1nc(-c2cccc(-c3cccc(NC(=O)c4nn(C)c(=O)n(C)c4=O)c3C)c2Cl)cc2c1[C@H](N[C@@H]1COC[C@@H]1O)CC2 (single isomer, unassigned) [Compound A-110] | ≤ 10 | 100 to 1000 | –
21 | COc1nc(-c2cccc(-c3cccc(NC(=O)c4nn(C)c(=O)n(C)c4=O)c3C)c2C)cc2c1[C@@H](N[C@@H]1COC[C@@H]1O)CC2 (single isomer, unassigned) [Compound A-111] | ≤ 10 | 10 to 100 | –
22 | COc1nc(-c2cccc(-c3cccc(NC(=O)c4nn(C)c(=O)n(C)c4=O)c3C)c2C)cc2c1[C@H](N[C@@H]1COC[C@@H]1O)CC2 (single isomer, unassigned) [Compound A-112] | ≤ 10 | 1000 to 10000 | –
23 | COc1nc(-c2cccc(-c3cccc(NC(=O)c4cn(C)c(=O)n(C)c4=O)c3C)c2Cl)cc2c1[C@@H](NC[C@H]1CCC(=O)N1)CC2 (single isomer, unassigned) [Compound A-113] | 10 to 100 | 1000 to 10000 | –
24 | COc1nc(-c2cccc(-c3cccc(NC(=O)c4cn(C)c(=O)n(C)c4=O)c3C)c2Cl)cc2c1[C@H](NC[C@H]1CCC(=O)N1)CC2 (single isomer, unassigned) [Compound A-114] | ≤ 10 | ≤ 10 | –
25 | COCCOc1nc(-c2cccc(-c3cccc(NC(=O)c4cn(C)c(=O)n(C)c4=O)c3C)c2Cl)cc2c1[C@@H](NC[C@@H]1CCC(=O)N1)CC2 (single isomer, unassigned) [Compound A-115] | ≤ 10 | 10 to 100 | –
26 | COCCOc1nc(-c2cccc(-c3cccc(NC(=O)c4cn(C)c(=O)n(C)c4=O)c3C)c2Cl)cc2c1[C@H](NC[C@@H]1CCC(=O)N1)CC2 (single isomer, unassigned) [Compound A-116] | ≤ 10 | 1000 to 10000 | –
27 | COc1nc(-c2cccc(-c3cccc(NC(=O)c4cn(C)c(=O)n(C)c4=O)c3C)c2Cl)cc2c1C(NC[C@@H]1CCC(=O)N1)C(O)C2 (single isomer, unassigned) [Compound A-125] | ≤ 10 | – | > 5000
28 | COc1nc(-c2cccc(-c3cccc(NC(=O)c4cn(C)c(=O)n(C)c4=O)c3C)c2Cl)cc2c1C(NC[C@@H]1CCC(=O)N1)C(O)C2 (single isomer, unassigned) [Compound A-126] | ≤ 10 | – | 10 to 100
29 | COc1nc(-c2cccc(-c3cccc(NC(=O)c4cn(C)c(=O)n(C)c4=O)c3C)c2Cl)cc2c1C(NC[C@@H]1CCC(=O)N1)C(O)C2 (single isomer, unassigned) [Compound A-127] | ≤ 10 | – | 100 to 1000
30 | COc1nc(-c2cccc(-c3cccc(NC(=O)c4cn(C)c(=O)n(C)c4=O)c3C)c2Cl)cc2c1C(NC[C@@H]1CCC(=O)N1)C(O)C2 (single isomer, unassigned) [Compound A-128] | ≤ 10 | – | 100 to 1000
31 | COc1nc(-c2cccc(-c3cccc(NC(=O)c4cn(C)c(=O)n(C)c4=O)c3Cl)c2Cl)cc2c1[C@@H](N1CC3(CNC(=O)C3)C1)CC2 (single isomer, unassigned) [Compound A-129] | ≤ 10 | ≤ 10 | –
